Source: ChEMBL document CHEMBL3421577, “Discovery and biological evaluation of tetrahydrothieno[2,3-c]pyridine derivatives as selective metabotropic glutamate receptor 1 antagonists for the potential treatment of neuropathic pain” (Eur J Med Chem, 2015)

Assays:
CYP2D6 = CYP2D6 (Homo sapiens, UniProt P10635); test: Inhibition of recombinant human CYP2D6 assessed as remaining activity at 10 uM preincubated for 5 mins followed by substrate and NADP addition measured after 20 mins by fluorescence assay relative to control; assay type: ADME; settings: read-out: Activity
[1] = Drug uptake in Sprague-Dawley rat brain at 10 mg/kg, iv measured at 2 hrs by LC-MS/MS analysis; assay type: ADME, organism-based; set-up: dose 10 mg/kg, route intravenous; settings: read-out: Drug uptake
[2] = Drug excretion in Sprague-Dawley rat at 10 mg/kg, po by LC-MS/MS analysis; assay type: ADME, organism-based; set-up: dose 10 mg/kg, route oral; settings: in vivo, read-out: Drug excretion
Rattus norvegicus = test: Analgesic activity in rat spinal nerve ligation model of neuropathic pain assessed as recovery from cold allodynia at 100 mg/kg, po administered on day 14 post ligation surgery measured after 1 hr relative to control; assay type: functional
[3] = biological target: C-C chemokine receptor type 5 (Homo sapiens) (UniProt P51681); test: Agonist activity at CCR5 (unknown origin) at 12.5 uM relative to control
[4] = Plasma concentration in Sprague-Dawley rat at 10 mg/kg, iv measured at 2 hrs by LC-MS/MS analysis; assay type: ADME, organism-based; set-up: dose 10 mg/kg, route intravenous
[5] = biological target: 5-hydroxytryptamine receptor 2A (Homo sapiens) (UniProt P28223); test: Antagonist activity at 5HT2A receptor (unknown origin) at 10 uM relative to control
[6] = biological target: Delta-type opioid receptor (Homo sapiens) (UniProt P41143); test: Agonist activity at OPRD1 receptor (unknown origin) at 12.5 uM relative to control
Sequence of Delta-type opioid receptor (Homo sapiens) (P41143 whole entry): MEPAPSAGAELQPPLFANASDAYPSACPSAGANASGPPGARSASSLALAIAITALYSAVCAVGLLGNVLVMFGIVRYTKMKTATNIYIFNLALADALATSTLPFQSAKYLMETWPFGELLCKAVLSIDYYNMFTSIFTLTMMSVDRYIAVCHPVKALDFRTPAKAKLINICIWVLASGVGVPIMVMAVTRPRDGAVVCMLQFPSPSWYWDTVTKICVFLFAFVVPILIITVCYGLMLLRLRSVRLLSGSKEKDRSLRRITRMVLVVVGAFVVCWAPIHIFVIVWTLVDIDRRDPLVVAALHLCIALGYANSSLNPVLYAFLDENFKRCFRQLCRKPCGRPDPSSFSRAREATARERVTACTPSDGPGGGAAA

[7] = Ratio of drug level in brain to plasma in Sprague-Dawley rat at 10 mg/kg, iv measured at 2 hrs by LC-MS/MS analysis; assay type: ADME, organism-based; set-up: dose 10 mg/kg, route intravenous; settings: read-out: BPR
[8] = biological target: Metabotropic glutamate receptor 5 (Homo sapiens, UniProt P41594); test: Antagonist activity at human mGluR5 expressed in human embryonic kidney cells assessed as inhibition of L-glutamate-induced calcium release at 10 uM by calcium-5 reagent-based fluorescence assay relative to control; assay type: functional, cell-based
Sequence of Metabotropic glutamate receptor 5 (P41594 21-1212 limits assumed): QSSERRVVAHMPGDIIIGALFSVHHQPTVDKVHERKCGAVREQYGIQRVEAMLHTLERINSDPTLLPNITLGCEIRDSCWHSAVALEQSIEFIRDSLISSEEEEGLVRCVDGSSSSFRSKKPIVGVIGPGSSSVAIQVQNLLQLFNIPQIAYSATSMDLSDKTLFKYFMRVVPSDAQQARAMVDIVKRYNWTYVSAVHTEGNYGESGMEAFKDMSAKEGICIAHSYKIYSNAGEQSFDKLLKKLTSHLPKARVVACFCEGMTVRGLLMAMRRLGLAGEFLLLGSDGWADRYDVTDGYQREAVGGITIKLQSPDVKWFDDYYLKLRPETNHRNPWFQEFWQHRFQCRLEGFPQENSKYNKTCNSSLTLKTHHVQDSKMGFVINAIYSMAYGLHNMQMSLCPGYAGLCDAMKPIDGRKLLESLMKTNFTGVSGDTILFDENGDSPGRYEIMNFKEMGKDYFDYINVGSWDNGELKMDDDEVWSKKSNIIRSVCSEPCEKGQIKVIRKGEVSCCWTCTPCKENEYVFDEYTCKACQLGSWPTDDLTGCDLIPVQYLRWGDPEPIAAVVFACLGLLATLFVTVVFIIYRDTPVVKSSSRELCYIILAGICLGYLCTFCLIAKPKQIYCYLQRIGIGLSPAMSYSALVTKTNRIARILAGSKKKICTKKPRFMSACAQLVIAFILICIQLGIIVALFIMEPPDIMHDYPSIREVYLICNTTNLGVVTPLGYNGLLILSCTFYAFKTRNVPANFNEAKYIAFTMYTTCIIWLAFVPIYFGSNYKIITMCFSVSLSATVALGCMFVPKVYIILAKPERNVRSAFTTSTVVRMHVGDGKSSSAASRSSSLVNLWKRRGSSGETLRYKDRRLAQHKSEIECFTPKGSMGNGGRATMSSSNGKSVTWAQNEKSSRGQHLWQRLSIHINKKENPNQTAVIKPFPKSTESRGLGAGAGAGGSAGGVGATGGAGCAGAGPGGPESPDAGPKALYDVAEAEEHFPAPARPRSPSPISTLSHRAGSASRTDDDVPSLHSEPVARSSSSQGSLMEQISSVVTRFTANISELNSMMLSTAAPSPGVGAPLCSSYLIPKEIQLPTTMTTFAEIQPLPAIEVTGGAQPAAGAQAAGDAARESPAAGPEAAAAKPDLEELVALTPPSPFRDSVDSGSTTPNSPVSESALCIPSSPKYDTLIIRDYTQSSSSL

[9] = AUC (0 to infinity) in Sprague-Dawley rat at 10 mg/kg, po by LC-MS/MS analysis; assay type: ADME, organism-based; set-up: time infinity, dose 10 mg/kg, route oral; settings: plasma
[10] = AUClast in Sprague-Dawley rat at 10 mg/kg, po by LC-MS/MS analysis; assay type: ADME, organism-based; set-up: time 0 - last, dose 10 mg/kg, route oral; settings: plasma
[11] = Terminal half life in Sprague-Dawley rat at 10 mg/kg, po by LC-MS/MS analysis; assay type: ADME, organism-based; set-up: dose 10 mg/kg, route oral; settings: in vivo, read-out: beta t1/2
[12] = Plasma concentration in Sprague-Dawley rat at 10 mg/kg, iv measured at 8 hrs by LC-MS/MS analysis; assay type: ADME, organism-based; set-up: dose 10 mg/kg, route intravenous
[13] = biological target: Substance-P receptor (Homo sapiens) (UniProt P25103); test: Antagonist activity at NK1 receptor (unknown origin) at 10 uM relative to control
Sequence of Substance-P receptor (Homo sapiens) (P25103 whole entry): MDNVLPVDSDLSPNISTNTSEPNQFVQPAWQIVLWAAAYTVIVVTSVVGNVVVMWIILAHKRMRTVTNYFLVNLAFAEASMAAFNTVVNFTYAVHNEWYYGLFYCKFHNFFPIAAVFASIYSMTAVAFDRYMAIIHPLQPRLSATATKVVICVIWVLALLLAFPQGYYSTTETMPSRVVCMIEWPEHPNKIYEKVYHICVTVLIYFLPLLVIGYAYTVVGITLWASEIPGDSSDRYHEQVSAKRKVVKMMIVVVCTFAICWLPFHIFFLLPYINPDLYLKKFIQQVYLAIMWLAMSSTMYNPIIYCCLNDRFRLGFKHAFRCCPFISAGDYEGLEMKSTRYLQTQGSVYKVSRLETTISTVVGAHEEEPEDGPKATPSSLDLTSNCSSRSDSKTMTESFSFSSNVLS

[14] = biological target: T1, Metabotropic glutamate receptor 1 (Homo sapiens, UniProt Q13255); test: Agonist activity at mGlu1 receptor (unknown origin) at 12.5 uM relative to control
T1 sequence (Q13255 19-1194 limits assumed): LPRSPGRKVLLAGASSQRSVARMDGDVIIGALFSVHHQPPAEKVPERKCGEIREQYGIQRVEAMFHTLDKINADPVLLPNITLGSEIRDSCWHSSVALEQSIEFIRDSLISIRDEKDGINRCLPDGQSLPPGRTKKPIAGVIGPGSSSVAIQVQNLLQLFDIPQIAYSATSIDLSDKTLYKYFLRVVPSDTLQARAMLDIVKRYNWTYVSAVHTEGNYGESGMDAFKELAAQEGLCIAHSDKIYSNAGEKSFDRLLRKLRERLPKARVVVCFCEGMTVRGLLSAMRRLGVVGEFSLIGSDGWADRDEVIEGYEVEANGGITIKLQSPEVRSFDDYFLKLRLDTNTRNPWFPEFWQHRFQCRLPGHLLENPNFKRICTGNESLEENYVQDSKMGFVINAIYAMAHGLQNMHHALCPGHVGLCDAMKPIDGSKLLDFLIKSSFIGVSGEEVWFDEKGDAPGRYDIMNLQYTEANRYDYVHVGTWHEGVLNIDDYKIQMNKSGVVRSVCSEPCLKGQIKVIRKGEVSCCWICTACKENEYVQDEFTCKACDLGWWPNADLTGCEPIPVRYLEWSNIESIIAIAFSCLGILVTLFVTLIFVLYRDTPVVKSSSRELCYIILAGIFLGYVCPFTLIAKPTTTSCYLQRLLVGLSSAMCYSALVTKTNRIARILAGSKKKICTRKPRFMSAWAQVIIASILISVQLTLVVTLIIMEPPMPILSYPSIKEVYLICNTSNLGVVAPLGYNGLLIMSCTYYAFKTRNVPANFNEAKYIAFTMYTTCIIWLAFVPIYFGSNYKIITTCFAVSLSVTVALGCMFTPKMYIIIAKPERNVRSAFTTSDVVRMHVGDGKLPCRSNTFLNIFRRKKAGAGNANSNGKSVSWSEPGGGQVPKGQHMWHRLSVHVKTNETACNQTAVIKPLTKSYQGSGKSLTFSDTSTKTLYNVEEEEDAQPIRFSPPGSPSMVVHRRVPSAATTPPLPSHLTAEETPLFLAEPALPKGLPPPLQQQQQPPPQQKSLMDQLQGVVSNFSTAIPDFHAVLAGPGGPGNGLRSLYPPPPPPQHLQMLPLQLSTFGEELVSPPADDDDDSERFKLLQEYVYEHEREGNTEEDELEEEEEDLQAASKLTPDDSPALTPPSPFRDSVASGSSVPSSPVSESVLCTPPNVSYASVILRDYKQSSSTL

[15] = biological target: Metabotropic glutamate receptor 2 (Homo sapiens) (UniProt Q14416); test: Antagonist activity at mGlu2 receptor (unknown origin) at 10 uM relative to control
Sequence of Metabotropic glutamate receptor 2 (Homo sapiens) (Q14416 19-872 limits assumed): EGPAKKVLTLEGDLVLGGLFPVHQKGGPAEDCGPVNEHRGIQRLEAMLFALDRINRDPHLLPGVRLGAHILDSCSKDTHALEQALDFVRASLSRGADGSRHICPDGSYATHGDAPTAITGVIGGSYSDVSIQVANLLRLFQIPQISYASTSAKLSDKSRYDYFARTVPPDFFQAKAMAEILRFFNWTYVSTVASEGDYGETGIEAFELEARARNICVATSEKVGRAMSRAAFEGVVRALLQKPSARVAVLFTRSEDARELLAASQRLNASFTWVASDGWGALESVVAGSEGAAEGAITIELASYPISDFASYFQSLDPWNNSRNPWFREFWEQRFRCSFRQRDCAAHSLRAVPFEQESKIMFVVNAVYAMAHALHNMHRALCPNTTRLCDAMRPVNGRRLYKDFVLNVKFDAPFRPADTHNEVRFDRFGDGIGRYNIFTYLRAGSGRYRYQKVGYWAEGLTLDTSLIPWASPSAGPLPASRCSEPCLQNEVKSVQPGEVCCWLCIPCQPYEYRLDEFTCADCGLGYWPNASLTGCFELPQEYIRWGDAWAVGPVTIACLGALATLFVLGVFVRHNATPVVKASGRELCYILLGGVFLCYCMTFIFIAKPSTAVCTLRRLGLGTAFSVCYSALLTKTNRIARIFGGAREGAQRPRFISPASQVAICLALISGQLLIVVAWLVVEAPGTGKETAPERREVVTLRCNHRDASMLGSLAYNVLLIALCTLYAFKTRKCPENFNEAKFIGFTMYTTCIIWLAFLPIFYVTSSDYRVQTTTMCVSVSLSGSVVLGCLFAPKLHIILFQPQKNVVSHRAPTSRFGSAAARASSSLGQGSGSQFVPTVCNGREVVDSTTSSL

[16] = biological target: Metabotropic glutamate receptor 2 (Homo sapiens) (UniProt Q14416); test: Agonist activity at mGlu2 receptor (unknown origin) at 12.5 uM relative to control
[17] = biological target: B2 bradykinin receptor (Homo sapiens) (UniProt P30411); test: Antagonist activity at BDKR2 (unknown origin) at 10 uM relative to control
[18] = biological target: T1, Metabotropic glutamate receptor 1; test: Antagonist activity at mGlu1 receptor (unknown origin) at 10 uM relative to control
[19] = biological target: Cannabinoid receptor 1 (Homo sapiens) (UniProt P21554); test: Antagonist activity at CB1 receptor (unknown origin) at 10 uM relative to control
Sequence of Cannabinoid receptor 1 (Homo sapiens) (P21554 whole entry): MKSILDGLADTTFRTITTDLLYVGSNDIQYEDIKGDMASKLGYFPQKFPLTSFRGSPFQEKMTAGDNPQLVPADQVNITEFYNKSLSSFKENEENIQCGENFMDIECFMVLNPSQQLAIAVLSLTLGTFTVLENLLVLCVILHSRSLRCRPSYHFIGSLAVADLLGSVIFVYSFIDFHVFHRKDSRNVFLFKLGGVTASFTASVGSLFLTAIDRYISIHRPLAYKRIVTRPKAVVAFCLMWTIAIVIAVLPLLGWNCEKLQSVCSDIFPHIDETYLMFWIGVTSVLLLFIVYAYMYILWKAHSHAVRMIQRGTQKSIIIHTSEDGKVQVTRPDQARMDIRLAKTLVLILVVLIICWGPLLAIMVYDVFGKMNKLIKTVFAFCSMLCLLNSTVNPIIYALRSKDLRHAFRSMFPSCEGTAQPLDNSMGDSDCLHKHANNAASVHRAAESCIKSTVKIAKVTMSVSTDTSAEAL

[20] = Plasma concentration in Sprague-Dawley rat at 10 mg/kg, po measured at 2 hrs by LC-MS/MS analysis; assay type: ADME, organism-based; set-up: dose 10 mg/kg, route oral
[21] = biological target: C-X-C chemokine receptor type 4 (Homo sapiens) (UniProt P61073); test: Antagonist activity at CXCR4 (unknown origin) at 10 uM relative to control
[22] = AUC (0 to infinity) in Sprague-Dawley rat at 10 mg/kg, iv by LC-MS/MS analysis; assay type: ADME, organism-based; set-up: time infinity, dose 10 mg/kg, route intravenous; settings: plasma
[23] = biological target: C-X-C chemokine receptor type 5 (Homo sapiens) (UniProt P32302); test: Agonist activity at CXCR5 (unknown origin) at 12.5 uM relative to control
CYP3A4 = CYP3A4 (Homo sapiens, UniProt P08684); test: Inhibition of recombinant human CYP3A4 assessed as remaining activity at 10 uM preincubated for 5 mins followed by substrate and NADP addition measured after 20 mins by fluorescence assay relative to control; assay type: ADME; settings: read-out: Activity
CYP2C9 = CYP2C9 (Homo sapiens, UniProt P11712); test: Inhibition of recombinant human CYP2C9 assessed as remaining activity at 10 uM preincubated for 5 mins followed by substrate and NADP addition measured after 20 mins by fluorescence assay relative to control; assay type: ADME; settings: read-out: Activity
Sequence of CYP2C9 (P11712 whole entry): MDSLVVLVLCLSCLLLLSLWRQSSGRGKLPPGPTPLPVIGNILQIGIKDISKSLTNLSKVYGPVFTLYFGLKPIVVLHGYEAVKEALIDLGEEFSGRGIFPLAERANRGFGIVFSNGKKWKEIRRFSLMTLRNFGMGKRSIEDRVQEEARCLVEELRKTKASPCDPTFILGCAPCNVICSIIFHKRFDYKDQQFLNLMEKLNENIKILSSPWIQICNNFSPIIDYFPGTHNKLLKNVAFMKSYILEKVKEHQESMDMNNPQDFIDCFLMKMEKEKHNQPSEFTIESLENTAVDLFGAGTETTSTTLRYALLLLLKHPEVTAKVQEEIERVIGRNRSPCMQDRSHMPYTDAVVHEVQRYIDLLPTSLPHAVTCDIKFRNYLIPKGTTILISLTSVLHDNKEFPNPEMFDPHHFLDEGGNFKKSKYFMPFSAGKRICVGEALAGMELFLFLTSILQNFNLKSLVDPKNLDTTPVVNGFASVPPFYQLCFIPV

[24] = biological target: C-C chemokine receptor type 4 (Homo sapiens) (UniProt P51679); test: Agonist activity at CCR4 (unknown origin) at 12.5 uM relative to control
[25] = Plasma concentration in Sprague-Dawley rat at 10 mg/kg, po measured at 8 hrs by LC-MS/MS analysis; assay type: ADME, organism-based; set-up: dose 10 mg/kg, route oral
[26] = Cmax in Sprague-Dawley rat at 10 mg/kg, po by LC-MS/MS analysis; assay type: ADME, organism-based; set-up: dose 10 mg/kg, route oral; settings: in vivo
[27] = Tmax in Sprague-Dawley rat at 10 mg/kg, po by LC-MS/MS analysis; assay type: ADME, organism-based; set-up: dose 10 mg/kg, route oral; settings: in vivo

Cc1cc(C(=O)N2CCc3c(sc(NCc4ccccc4)c3C#N)C2)[nH]n1
activity at 20 min, 10 µM (CYP2D6): 33.7% | concentration at 2 h [1]: 138 ng/mL | dose excreted [2]: 0% | Activity (Rattus norvegicus): 90% | Activity [3]: -0.6% | concentration at 2 h [4]: 1240 ng/mL | inhibition [5]: 36.2% | Activity [6]: 1.5% | Kp at 2 h [7]: 0.14 | inhibition [8]: 59.8% | AUC(0-inf) [9]: 4250 ng·h/mL | AUC(0-t) [10]: 4090 ng·h/mL | half-life [11]: 1.48 h | concentration at 8 h [12]: 80 ng/mL | inhibition [13]: -2.1% | Activity [14]: -0.2% | inhibition [15]: 5.8% | Activity [16]: -2.7% | inhibition [17]: 10.3% | inhibition [18]: 104% | inhibition [19]: -2.8% | concentration at 2 h [20]: 1190 ng/mL | inhibition [21]: 3.9% | AUC(0-inf) [22]: 9270 ng·h/mL | Activity [23]: -2.9% | activity at 20 min, 10 µM (CYP3A4): 20.5% | activity at 20 min, 10 µM (CYP2C9): 6.77% | Activity [24]: -2.3% | concentration at 8 h [25]: 70 ng/mL | Cmax [26]: 1410 ng/mL | Tmax [27]: 1.2 h
